{"source": "patent US7223834B2", "about": "“Assays and peptide substrate for determining aggrecan degrading metallo protease activity” (Bristol-Myers Squibb Pharma Company, priority 1997, dated 2007)", "tested_on": "ADMP", "conditions": "GLU to GLN substitution at position 373 (P1)", "data": [{"substance": "QTVTWPDMELPLPRNITEGQARGSVILTVK-Biotin [30-IP]", "values": [{"measurement": "mode of inhibition of the enzyme", "value": "competitive inhibitor"}]}]}
